“Also recorded” adds a separate entry of the source.
Columns and labels:
[1] = system: SMA-like mice (progeny of hSMN2 Smn+/- intercross); assay: In utero treatment of SMA-like mice (pregnant mice from hSMN2 Smn+/- intercross); format: in vivo, mouse
Protocol: To evaluate the therapeutic effect of sodium butyrate for severely affected SMA mice, the test compound was administered to pregnant mice from an hSMN2 Smn^+/− intercross. The number mice born with SMA-like phenotypes were counted and classified according to type. In one case, 4-8 μg/day sodium butyrate was administered to pregnant mice from a hSMN2 Smn^+/− intercross ad libitum in their drinking water beginning from 15 day post-coitum until parturition (Table 1).

exon 7 of the SMN2 gene = assay: RT-PCR analysis of SMN exon 7 expression in EBV transformed lymphoid cell lines of SMA patients; format: cell-based, human
[2] = system: exon 7-containing SMN protein; assay: Western-blot analysis (H2 and H7 antibodies) of SMN protein in SMA patient lymphoid cell lines; format: cell-based, human; settings: cytosolic and nuclear fractions, 4 hours stimulation, 0.5 ng/ml to 5 μg/ml
Protocol: Lymphoid cells were isolated from SMA patients with different degrees of severity. Whole blood was drawn from the patients, heparinized, then diluted 1:1 with PBS (phosphate buffered saline). The diluted sample was layered on a Ficoll-Hypaque gradient, and centrifuge at 2500 rpm for 30 minutes at room temperature. The buffy coat was collected from the centrifuged sample, washed twice with 5 ml PBS, collected, and resuspended in 5 ml RPMI medium, 0.5 ml Epstein-Barr virus (EBV stock), 50 μl PHA, and 50 μl of cyclosporine (0.2 mg/ml). The virus-treated sample was mixed well and transferred into a T-flask for incubation at 37° C. in a 5% CO2 incubator for 3 weeks.
Rabbits were immunized with synthetic peptides containing either human SMN amino acids 279-288 from exon 7 or amino acids 72-84 from exon 2. Specific antibodies (H7 and H2 batches) were purified from rabbit crude sera with an EAH-sepharose 4B column (Pharmacia) according to the manufacturer's instructions.
Protein samples, prepared from treated and untreated SMA lymphoid cells, were loaded on a 5% polyacrylamide stacking gel above a 12% separating gel, and the gel was run with a discontinuous buffer using Laemmli's method. […] The secondary antibody was detected with a 1.5% solution of 5-bromo-4-chloro-3-indoyl phosphate and 3% nitro blue tetrazolium in a developing buffer (100 mM NaCl, 5 mM MgCl2, 100 mM Tris.HCl, pH 9.5). […]

[3] = system: SMA-like mice (hSMN2 Smn-/-); assay: Treatment of types 2 and 3 SMA-like mice via drinking water; format: in vivo, mouse
Text: To generate hSMN2 Smn^−/− mice, hSMN2 Smn^+/− mice were crossed to Smn^+/− mice. Progeny lacking the murine SMN locus were identified by genotyping. The presence of the hSMN2 transgene was also confirmed.
These mice frequently developed chronic necrosis of the tail tip, muscular atrophy, subcutaneous edema in hindlimbs, and paralysis of hindlimbs. Type 3 mice survived and bred normally. The mild symptoms of these mice include short but enlarged tails.
The effect of sodium butyrate on the symptoms of SMA-like mice were investigated. Sodium butyrate was administered to ten SMA-like mice with type 2 symptoms and ten SMA-like mice with type 3 symptoms. These mice were identified at birth by genotype and phenotype. Thereafter, their drinking water was supplemented with a 0.8 μg/ml or an 8 μg/ml solution of sodium butyrate. The drinking water was available ad libitum. The amount of sodium butyrate taken by SMA-like mice was estimated to be approximate 4-80 μg/day. The survival time of sodium butyrate-treated type 2 SMA-like mice was longer, about 4 to 5 days longer on average, than untreated mice.
The effect of sodium butyrate administration on the tail phenotype of SMA-like mice was also monitored. The tails of untreated types 2 and 3 SMA-like mice have decreased diameter of muscle fibers, atrophy of muscle bundles, group atrophy and subcutaneous edema (Hsieh-Li et al. (2000) supra). […] The tail of a treated mouse was about 5 cm long on average, whereas the tail of an untreated mouse was about 1 cm long. Remarkably, the average length of the tail of treated mice, 5 cm, is close to the average length for wild-type mice, 6 cm.

[4] = treated mothers, 4-8 μg/day from 15 day post-coitum until parturition (untreated 10%)
[5] = treated mothers, 4-8 μg/day from 15 day post-coitum until parturition, 294 total pups

Q: Which results are given for `CCCC(=O)[O-].[Na+]` [sodium butyrate]?
A: symptoms of progeny from treated mothers vs progeny from untreated mothers ([1]; higher dose, 40-80 μg/day): milder symptoms; percent of pups with Type 2 symptoms ([1]; treated mothers, 4-8 μg/day from 15 day post-coitum until parturition (untreated 5%)): 7%; percent of pups with Type 1 symptoms [1, 4]: 7%; percent of pups with Type 3 symptoms [1, 4]: 16%; number of pups with Type 2 symptoms [1, 5]: 22; number of pups with Type 3 symptoms [1, 5]: 48; number of pups with Type 1 symptoms ([1]; treated mothers, 4-8 μg/day in drinking water from 15 day post-coitum until parturition, 294 total pups): 21; splicing of SMN2 transcripts (exon 7 of the SMN2 gene; RT-PCR, treated vs untreated cells): changed to include exon 7; amount of exon 7-containing SMN mRNA (exon 7 of the SMN2 gene; lymphoid cells cultured with 5 ng/ml to 50 μg/ml): increased; time of greatest increase of exon 7-containing SMN mRNA after addition of the drug (exon 7 of the SMN2 gene; lymphoid cells, 5 ng/ml to 50 μg/ml): 4 h; level of full-length SMN mRNA transcript (exon 7 of the SMN2 gene; relative to untreated control, lymphoid cells from all three types of SMA patients): increased levels of full-length SMN transcript; also recorded: increase; amount of intact (exon 7-containing) SMN protein [2]: increase; tail histopathology relative to untreated SMA-like mice ([3]; treated SMA-like mice): fewer atrophied muscle bundles, less group atrophy, and reduced subcutaneous edema; frequency of chronic necrosis originating at the tip of the tail ([3]; treated SMA-like mice (untreated 50%)): 2%; tail length on average ([3]; treated type 3 SMA-like mice (untreated about 1 cm, wild-type 6 cm)): about 5 cm; survival time longer than untreated mice, on average ([3]; type 2 SMA-like mice, drinking water 0.8 or 8 μg/ml, approx. 4-80 μg/day): 4 to 5 days; tail phenotype ([3]; type 3 SMA-like mice): close to wild-type; exon 7-containing SMN protein levels in tissues ([3]; western blot and immunohistochemistry, multiple tissues including spinal cord motor neurons): elevated

— patent US6376508B1, “Treatments for spinal muscular atrophy” (priority 2000, dated 2002)
